{
  "source": "paper PMC6352943",
  "about": "“Novel pyrazolo[3,4-d]pyrimidines: design, synthesis, anticancer activity, dual EGFR/ErbB2 receptor tyrosine kinases inhibitory activity, effects on cell cycle profile and caspase-3-mediated apoptosis” (Journal of Enzyme Inhibition and Medicinal Chemistry, 2019)",
  "key": {"[1]": {"tested_on": "BT-549", "assay": "NCI 60 cell line single dose screen (SRB)", "assay_type": "cell-based", "conditions": "Homo sapiens; BT-549 (breast cancer), single dose 10^−5 M, 48 h; read-out: Growth inhibition percentage", "in_short": "(§1)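 Cells were plated and grown 24 h at 37 °C, 5% CO2 before compound addition from DMSO stock, then exposed 48 h. Adherent cells were fixed with cold TCA (final 10%) and suspension cells with 16% TCA. SRB-stained protein was read at 515 nm and percent growth was calculated against time-zero and untreated plates.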"}, "[2]": {"tested_on": "HOP-62", "assay": "NCI 60 cell line single dose screen (SRB)", "assay_type": "cell-based", "conditions": "Homo sapiens; HOP-62 (non-small cell lung cancer), single dose 10^−5 M, 48 h; read-out: Growth inhibition percentage", "in_short": "as §1"}, "[3]": {"tested_on": "HOP-92", "assay": "NCI 60 cell line single dose screen (SRB)", "assay_type": "cell-based", "conditions": "Homo sapiens; HOP-92 (non-small cell lung cancer), single dose 10^−5 M, 48 h; read-out: Growth inhibition percentage", "in_short": "as §1"}, "[4]": {"tested_on": "HT29", "assay": "NCI 60 cell line single dose screen (SRB)", "assay_type": "cell-based", "conditions": "Homo sapiens, HT-29; HT29 (colon cancer), single dose 10^−5 M, 48 h; read-out: Growth inhibition percentage", "in_short": "as §1"}, "[5]": {"tested_on": "K-562", "assay": "NCI 60 cell line single dose screen (SRB)", "assay_type": "cell-based", "conditions": "Homo sapiens, K562; K-562 (leukemia), single dose 10^−5 M, 48 h; read-out: Growth inhibition percentage", "in_short": "as §1"}, "[6]": {"tested_on": "LOX IMVI", "assay": "NCI 60 cell line single dose screen (SRB)", "assay_type": "cell-based", "conditions": "Homo sapiens; LOX IMVI (melanoma), single dose 10^−5 M, 48 h; read-out: Growth inhibition percentage", "in_short": "as §1"}, "[7]": {"tested_on": "MDA-MB-231/ATCC", "assay": "NCI 60 cell line single dose screen (SRB)", "assay_type": "cell-based", "conditions": "Homo sapiens; MDA-MB-231/ATCC (breast cancer), single dose 10^−5 M, 48 h; read-out: Growth inhibition percentage", "in_short": "as §1"}, "[8]": {"tested_on": "MOLT-4", "assay": "NCI 60 cell line single dose screen (SRB)", "assay_type": "cell-based", "conditions": "Homo sapiens; MOLT-4 (leukemia), single dose 10^−5 M, 48 h; read-out: Growth inhibition percentage", "in_short": "as §1"}, "[9]": {"tested_on": "NCI-H522", "assay": "NCI 60 cell line single dose screen (SRB)", "assay_type": "cell-based", "conditions": "Homo sapiens; NCI-H522 (non-small cell lung cancer), single dose 10^−5 M, 48 h; read-out: Growth inhibition percentage", "in_short": "as §1"}, "[10]": {"tested_on": "RXF 393", "assay": "NCI 60 cell line single dose screen (SRB)", "assay_type": "cell-based", "conditions": "Homo sapiens; RXF 393 (renal cancer), single dose 10^−5 M, 48 h; read-out: Growth inhibition percentage", "in_short": "as §1"}, "[11]": {"tested_on": "SF-593", "assay": "NCI 60 cell line single dose screen (SRB)", "assay_type": "cell-based", "conditions": "Homo sapiens, SF-593 (CNS cancer), single dose 10^−5 M, 48 h, read-out: Growth inhibition percentage", "in_short": "as §1"}, "[12]": {"tested_on": "SR", "assay": "NCI 60 cell line single dose screen (SRB)", "assay_type": "cell-based", "conditions": "Homo sapiens; SR (leukemia), single dose 10^−5 M, 48 h; read-out: Growth inhibition percentage", "in_short": "as §1"}, "[13]": {"tested_on": "SW-620", "assay": "NCI 60 cell line single dose screen (SRB)", "assay_type": "cell-based", "conditions": "Homo sapiens; SW-620 (colon cancer), single dose 10^−5 M, 48 h; read-out: Growth inhibition percentage", "in_short": "as §1"}, "[14]": {"tested_on": "T-47D", "assay": "NCI 60 cell line single dose screen (SRB)", "assay_type": "cell-based", "conditions": "Homo sapiens, T47D; T-47D (breast cancer), single dose 10^−5 M, 48 h; read-out: Growth inhibition percentage", "in_short": "as §1"}, "[15]": {"tested_on": "TK-10", "assay": "NCI 60 cell line single dose screen (SRB)", "assay_type": "cell-based", "conditions": "Homo sapiens; TK-10 (renal cancer), single dose 10^−5 M, 48 h; read-out: Growth inhibition percentage", "in_short": "as §1"}, "[16]": {"tested_on": "UACC-257", "assay": "NCI 60 cell line single dose screen (SRB)", "assay_type": "cell-based", "conditions": "Homo sapiens; UACC-257 (melanoma), single dose 10^−5 M, 48 h; read-out: Growth inhibition percentage", "in_short": "as §1"}},
  "data": [
    {"smiles": "COc1cc(C=NNc2ncnc3c2c(C)nn3-c2ccc(F)cc2)ccc1O", "note": "[Compound 10b, 1–(4-Fluorophenyl)-4–(2-(4-hydroxy-3-methoxybenzylidene)-hydrazinyl)-3-methyl-1H-pyrazolo[3,4-d]pyrimidine]", "values": [
      {"measurement": "inhibition at 10 µM", "setting": "[1]", "value": 9.63, "unit": "%"},
      {"measurement": "inhibition at 10 µM", "setting": "[2]", "value": -6.39, "unit": "%"},
      {"measurement": "inhibition at 10 µM", "setting": "[3]", "value": 39.5, "unit": "%"},
      {"measurement": "inhibition at 10 µM", "setting": "[4]", "value": 7.7, "unit": "%"},
      {"measurement": "inhibition at 10 µM", "setting": "[5]", "value": 24.2, "unit": "%"},
      {"measurement": "inhibition at 10 µM", "setting": "[6]", "value": 19, "unit": "%"},
      {"measurement": "inhibition at 10 µM", "setting": "[7]", "value": 15.6, "unit": "%"},
      {"measurement": "inhibition at 10 µM", "setting": "[8]", "value": 38.3, "unit": "%"},
      {"measurement": "inhibition at 10 µM", "setting": "[9]", "value": 27.1, "unit": "%"},
      {"measurement": "inhibition at 10 µM", "setting": "[10]", "value": 4.9, "unit": "%"},
      {"measurement": "inhibition at 10 µM", "setting": "[11]", "value": 3.85, "unit": "%"},
      {"measurement": "inhibition at 10 µM", "setting": "[12]", "value": 22.9, "unit": "%"},
      {"measurement": "inhibition at 10 µM", "setting": "[13]", "value": -30.9, "unit": "%"},
      {"measurement": "inhibition at 10 µM", "setting": "[14]", "value": 20.1, "unit": "%"},
      {"measurement": "inhibition at 10 µM", "setting": "[15]", "value": 11.3, "unit": "%"},
      {"measurement": "inhibition at 10 µM", "setting": "[16]", "value": -14.1, "unit": "%"},
      {"measurement": "melting point", "value": "221 to 223", "unit": "°C"}
    ]}
  ]
}
